Data on 3 molecules can be found in ChEMBL document CHEMBL1149411, “Application of fragment screening and fragment linking to the discovery of novel thrombin inhibitors” (J Med Chem, 2006).

The structures appear in SMILES notation. Activity calls are given as the source filed them. The rule behind the calls is not given here.

One assay addresses Trypsin (Homo sapiens, UniProt P07477+P07478+P35030). The experiment in a line: Inhibitory activity against trypsin. In kind it is protein assay.
The target of assay [1] is T1, Prothrombin (Homo sapiens, UniProt P00734). The assay is described as follows: Inhibitory activity against Thrombin.
Assay [2] has as its target T1, Prothrombin. The assay is described as follows: Inhibition of Thrombin at 300 uM.

Consider `COc1cc(C)c(S(=O)(=O)NC[C@@H](O)[C@H](Cc2ccccc2)NCc2cccc(Cl)c2)c(C)c1C`, for which the IC50 at Trypsin was > 100000 nM.

`COc1cc(C)c(S(=O)(=O)NC[C@@H](O)[C@H](Cc2ccccc2)NCc2cc(Cl)ccc2-n2cnnn2)c(C)c1C` gave an IC50 against Prothrombin [1] of 1.4 nM. In other words, the single-digit nanomolar range. In the case of `NCc1cccc(Cl)c1`, the inhibition result at Prothrombin [2] is “inactive”.
